Measured values published in patent publication US8772500B2, “TRPV3 modulators” (AbbVie Inc., priority 2011, dated 2014).

Legend:
[1] = In vitro rat microsomal stability assay; type: in vitro ADME, rat (Sprague-Dawley)
Method in brief: (§1)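 Liver microsomes: Sprague-Dawley rat for rat assay, human for human assay; 37 °C; NADPH cofactor, also spiked into time-zero plates.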

[2] = In vitro human microsomal stability assay; type: in vitro ADME
Method in brief: as §1

[3] = molecular target: T1, human TRPV3 (Homo sapiens, UniProt Q8NET8); assay: In vitro antagonism of recombinant human TRPV3 activation (FLIPR Tetra calcium assay, 2-APB as agonist); type: cell-based; conditions: HEK293 cells stably expressing human TRPV3; 2-APB 80 μM; range class; read-out: IC50 (reported range)
T1 construct: expressed in transfected cells
T1 sequence (Q8NET8 1-790): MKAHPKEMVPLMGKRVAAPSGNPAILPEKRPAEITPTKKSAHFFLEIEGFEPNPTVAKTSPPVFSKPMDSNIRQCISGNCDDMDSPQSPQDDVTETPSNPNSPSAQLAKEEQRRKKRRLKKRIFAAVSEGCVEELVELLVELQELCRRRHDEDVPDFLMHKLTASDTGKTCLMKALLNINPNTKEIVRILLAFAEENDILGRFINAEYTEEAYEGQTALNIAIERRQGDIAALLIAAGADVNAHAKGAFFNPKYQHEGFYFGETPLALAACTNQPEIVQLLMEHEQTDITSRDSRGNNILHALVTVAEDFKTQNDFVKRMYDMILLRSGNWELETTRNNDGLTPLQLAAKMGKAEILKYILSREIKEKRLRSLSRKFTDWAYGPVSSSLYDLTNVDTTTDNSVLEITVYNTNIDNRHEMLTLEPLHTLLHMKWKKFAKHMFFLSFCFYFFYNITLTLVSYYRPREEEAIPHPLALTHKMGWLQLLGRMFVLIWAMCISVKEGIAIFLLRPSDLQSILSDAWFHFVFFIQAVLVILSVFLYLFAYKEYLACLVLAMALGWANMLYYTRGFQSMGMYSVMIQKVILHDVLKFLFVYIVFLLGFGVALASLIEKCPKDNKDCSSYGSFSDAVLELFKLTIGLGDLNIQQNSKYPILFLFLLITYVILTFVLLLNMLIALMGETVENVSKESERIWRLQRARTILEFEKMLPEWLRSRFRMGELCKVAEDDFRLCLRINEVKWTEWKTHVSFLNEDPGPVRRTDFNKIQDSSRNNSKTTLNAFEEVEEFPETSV
Method in brief: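 HEK293 cells stably expressing human TRPV3, loaded with Calcium-4 dye for 90-120 min; compound added 3 min before 2-APB at 80 μM (its EC80). Fluorescence (max minus min) over 10 min expressed as % of maximal 2-APB response without antagonist; IC50 mostly averaged from n≧2 runs.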

[4] = Sprague-Dawley, rat, 0.5 h, 0.5 μM, pH 7.4
[5] = 0.5 μM substrate, 0.25 mg/mL microsomal protein, pH 7.4, 37° C., NADPH, 30 minutes

| Structure (SMILES) | RAT MICROSOMAL STABILITY (% REMAINING AFTER 30 MINUTES) [1, 4] | HUMAN MICROSOMAL STABILITY (% REMAINING AFTER 30 MINUTES) ([2]; human, 0.5 h, 0.5 μM, pH 7.4) | IC50 [3] | RAT MICROSOMAL STABILITY (% REMAINING AFTER 30 MINUTES) [1, 5] | HUMAN MICROSOMAL STABILITY (% REMAINING AFTER 30 MINUTES) [2, 5] | RAT […] (% REMAINING AFTER 30 MINUTES) [1, 5] | HUMAN […] (% REMAINING AFTER 30 MINUTES) [2, 5] |
| --- | --- | --- | --- | --- | --- | --- | --- |
| O[C@H](c1ccccn1)C1(c2ccc(C(F)(F)F)cc2)CCC1 [Example 28, (S)-pyridin-2-yl{1-[4-(trifluoromethyl)phenyl]cyclobutyl}methanol] | 13% | 12% | 50 to 500 nM |  |  |  |  |
| O[C@H](c1ccccn1)C1(c2ccc(C(F)(F)F)cc2F)CCC1 [Example 27, (S)-{1-[2-fluoro-4-(trifluoromethyl)phenyl]cyclobutyl}(pyridin-2-yl)-methanol] | 15% | 13% | 1100 to 5000 nM |  |  |  |  |
| OC(CC1(c2cccc(C(F)(F)F)c2)CCC1)c1ccccn1 (stereo not drawn) [Example 74, 1-(pyridin-2-yl)-2-{1-[3-(trifluoromethyl)phenyl]cyclobutyl}ethanol] | 0.45% | 6.8% | 50 to 500 nM |  |  |  |  |
| OC(c1ccccn1)C1(c2cccc(F)c2)CCC1 (stereo not drawn) [Example 2, [1-(3-fluorophenyl)cyclobutyl](pyridin-2-yl)methanol] | 0.64% | 17% | 50 to 500 nM |  |  |  |  |
| CC(c1ccccc1Cl)C1(C(O)c2ccccn2)CCC1 (stereo not drawn) [Example 50, {1-[1-(2-chlorophenyl)ethyl]cyclobutyl}(pyridin-2-yl)methanol] | 0.18% | 0.08% | 1100 to 5000 nM |  |  |  |  |
| OC(c1ccccn1)C1(C(c2ccccc2)C(F)(F)F)CCC1 (stereo not drawn) [Example 58, pyridin-2-yl[1-(2,2,2-trifluoro-1-phenylethyl)cyclobutyl]methanol] | 33% | 36% | 1100 to 5000 nM |  |  |  |  |
| OC(c1ccccn1)C1(c2ccc(Cc3ccccc3)cc2)CCC1 (stereo not drawn) [Example 25, [1-(4-benzylphenyl)cyclobutyl](pyridin-2-yl)methanol] | 1.3% | 21% | 1100 to 5000 nM |  |  |  |  |
| OC(c1ccccn1)C1(c2ccc(F)cc2)CCC1 (stereo not drawn) [Example 3, [1-(4-fluorophenyl)cyclobutyl](pyridin-2-yl)methanol] | 3.8% | 28% | 501 to 1000 nM |  |  |  |  |
| Cl.O[C@H](c1ccccn1)C1(c2ccc(Cl)c(Cl)c2)CC(F)(F)C1 [Example 111, (S)-[1-(3,4-dichlorophenyl)-3,3-difluorocyclobutyl](pyridin-2-yl)methanol hydrochloride] |  |  | 50 to 500 nM | 23% | 52% |  |  |
| O[C@H](c1ccccn1)[C@]1(c2cccc(C(F)(F)F)c2)C[C@H](O)C1 (relative stereo) [Example 259, cis-3-[(S)-hydroxy(pyridin-2-yl)methyl]-3-[3-(trifluoromethyl)phenyl]-cyclobutanol] |  |  | 50 to 500 nM |  |  | 73% | 76% |
| OC(c1ccccn1)C1(c2ccc(F)c(F)c2)CCCO1 (stereo not drawn) [Example 109, (syn)-[2-(3,4-difluorophenyl)tetrahydrofuran-2-yl](pyridin-2-yl)methanol] | 0.74% | 45% | 5100 to 20000 nM |  |  |  |  |
| OC(c1ccccn1)C1(c2ccccc2OC(F)(F)F)CCC1 (stereo not drawn) [Example 10, pyridin-2-yl{1-[2-(trifluoromethoxy)phenyl]cyclobutyl}methanol] | 0.62% | 0.42% | 1100 to 5000 nM |  |  |  |  |
| OC(CC1(c2cccc(OC(F)(F)F)c2)CCC1)c1ccccn1 (stereo not drawn) [Example 77, 1-(pyridin-2-yl)-2-{1-[3-(trifluoromethoxy)phenyl]cyclobutyl}ethanol] | 0.94% | 11% | 501 to 1000 nM |  |  |  |  |
| Cc1ccccc1C1(C(O)c2ccccn2)CCCO1 (stereo not drawn) [Example 90, [2-(2-methylphenyl)tetrahydrofuran-2-yl](pyridin-2-yl)methanol] | <0.01% | 35% | 50 to 500 nM |  |  |  |  |
| OC1CC(c2ccc(Cl)c(Cl)c2)(C(O)c2ccccn2)C1 (single isomer, unassigned) [Example 118] | 74% | >85% | 50 to 500 nM |  |  |  |  |
| OC(c1ccccn1)C1(c2ccc(OC(F)(F)F)cc2)CCCO1 (stereo not drawn) [Example 95, (syn)-pyridin-2-yl{2-[4-(trifluoromethoxy)phenyl]tetrahydrofuran-2-yl}-methanol] | 0.61% | 57% | 1100 to 5000 nM |  |  |  |  |

Continued, in another order:

| RAT MICROSOMAL STABILITY (% REMAINING AFTER 30 MINUTES) [1, 4] | HUMAN MICROSOMAL STABILITY (% REMAINING AFTER 30 MINUTES) ([2]; human, 0.5 h, 0.5 μM, pH 7.4) | IC50 [3] | Structure (SMILES) | RAT MICROSOMAL STABILITY (% REMAINING AFTER 30 MINUTES) [1, 5] | HUMAN MICROSOMAL STABILITY (% REMAINING AFTER 30 MINUTES) [2, 5] | RAT […] (% REMAINING AFTER 30 MINUTES) [1, 5] | HUMAN […] (% REMAINING AFTER 30 MINUTES) [2, 5] |
| --- | --- | --- | --- | --- | --- | --- | --- |
| 67% | 59% | 50 to 500 nM | O[C@H](c1ccccn1)C1(c2ccc(OC(F)(F)F)cc2)CC(F)(F)C1 [Example 128, (S)-{3,3-difluoro-1-[4-(trifluoromethoxy)phenyl]cyclobutyl}(pyridin-2-yl)-methanol] |  |  |  |  |
| 18% | 41% | 501 to 1000 nM | OC(c1ccccn1)C1(c2ccc(Cl)c(C(F)(F)F)c2)CC(F)(F)C1 (stereo not drawn) [Example 138, {1-[4-chloro-3-(trifluoromethyl)phenyl]-3,3-difluorocyclobutyl}(pyridin-2-yl)methanol] |  |  |  |  |
| >85% | >85% | 5100 to 20000 nM | OC1CC(c2ccc(C(F)(F)F)cc2)(C(O)c2ccccn2)C1 [Example 200, cis-3-[(S)-hydroxy(pyridin-2-yl)methyl]-3-[4-(trifluoromethyl)phenyl]-cyclobutanol] |  |  |  |  |
| 3.4% | 33% | 501 to 1000 nM | O[C@H](c1ccccn1)[C@@]1(c2ccc(Cl)c(Cl)c2)CCO1 [Example 135, (R)-[(2S)-2-(3,4-dichlorophenyl)oxetan-2-yl](pyridin-2-yl)methanol] |  |  |  |  |
| 70% | >85% | 1100 to 5000 nM | N[C@@H]1CCC[C@H]1[C@@H](O)C1(c2ccc(Cl)cc2)CCC1 [Example 224, (R)-[(1R,2R)-2-aminocyclopentyl][1-(4-chlorophenyl)cyclobutyl]methanol] |  |  |  |  |
| <0.01% | 73% | 5100 to 20000 nM | OC(c1ccccn1)C1(c2ccc(OC(F)(F)F)cc2)CC2(C1)OCCO2 (stereo not drawn) [Example 202, pyridin-2-yl{2-[4-(trifluoromethoxy)phenyl]-5,8-dioxaspiro[3.4]oct-2-yl}-methanol] |  |  |  |  |
| 76% | >85% | 5100 to 20000 nM | CN1CC(c2ccc(C(F)(F)F)cc2)(C(O)c2ccccn2)C1 (stereo not drawn) [Example 155, {1-methyl-3-[4-(trifluoromethyl)phenyl]azetidin-3-yl}(pyridin-2-yl)methanol] |  |  |  |  |
| <0.01% | 12% | 5100 to 20000 nM | OC(c1ccccn1)C1(C2=CCC(F)(F)CC2)CCC1 (stereo not drawn) [Example 260, [1-(4,4-difluorocyclohex-1-en-1-yl)cyclobutyl](pyridin-2-yl)methanol] |  |  |  |  |
| <0.01% | 22% | 5100 to 20000 nM | CC(C)(C)OC(=O)N1CCC(C2(C(O)c3ccccn3)CCC2)CC1 (stereo not drawn) [Example 279, tert-butyl 4-{1-[hydroxy(pyridin-2-yl)methyl]cyclobutyl}piperidine-1-carboxylate] |  |  |  |  |
| >85% | 73% | 5100 to 20000 nM | CC1(O)CC(c2ccnc(C(F)(F)F)c2)(C(O)c2ccccn2)C1 [Example 307, trans-3-[(S)-hydroxy(pyridin-2-yl)methyl]-1-methyl-3-[2-(trifluoromethyl)-pyridin-4-yl]cyclobutanol] |  |  |  |  |
